Experimental data from patent US9169217B2, “Arylalkyl esters of 4-amino-6-(substituted phenyl)-picolinates and 6-amino-2-(substituted phenyl)-pyrimidinecarboxylates and their use as selective herbicides for crops” (Dow AgroSciences LLC, priority 2011, dated 2015).

Experiments:
[1] = tested on: Scirpus juncoides ROXB. (Japanese bulrush); assay: In-water applied herbicidal activity in transplanted paddy rice (Example 17); type: in vivo; conditions: Schoenoplectiella juncoides, 504 h; rice cropping systems, in-water applied (paddy), 35 g ae/ha, 21 DAA; may represent multiple trials; read-out: Visual Injury (%) SCPJU
Method in brief: (§1)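 Ester forms of test compounds, in acetone diluted with aqueous Agri-dex (final 1.25% v/v crop oil concentrate), were injected into the flood water of paddy pots holding weeds or rice at the 2nd–3rd leaf stage in mud (pH ~7.3–7.8). Visual injury versus untreated plants was scored 0–100% after 3 weeks in greenhouse (~29/26 °C). GR50/GR80 were derived by probit analysis.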

[2] = tested on: Echinochloa crus-galli (L.) P.BEAUV. (barnyardgrass); assay: as above; type: in vivo; conditions: Echinochloa crus-galli, 504 h; rice cropping systems, in-water applied (paddy), 35 g ae/ha, 21 DAA; may represent multiple trials; read-out: Visual Injury (%) ECHCG
Method in brief: as §1

[3] = tested on: Scirpus juncoides ROXB. (Japanese bulrush); assay: Postemergence foliar-applied herbicidal activity in direct seeded rice (Example 16); type: in vivo; conditions: Schoenoplectiella juncoides, post-emergence, 504 h; rice cropping systems, foliar-applied, 17.5 g ae/ha, 21 DAA; may represent multiple trials; read-out: Visual Injury (%) SCPJU
Method in brief: (§2)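 Greenhouse plants at 2nd–3rd true leaf stage (10–17 d, ~29/26 °C, 14-h photoperiod) sprayed postemergence with ester forms in acetone–DMSO plus 1.25% crop oil concentrate at 187 L/ha. Visual injury scored 0–100% versus untreated plants after 3 weeks; GR50/GR80 derived by probit analysis.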

[4] = tested on: Sesbania exaltata (RAF.) CORY/RYDB. (hemp sesbania); assay: as above; type: in vivo; conditions: rice cropping systems, 17.5 g ae/ha, 21 DAA, may represent multiple trials
Method in brief: as §2

[5] = tested on: Echinochloa crus-galli (L.) P.BEAUV. (barnyardgrass); assay: as above; type: in vivo; conditions: rice cropping systems, 17.5 g ae/ha, 21 DAA, may represent multiple trials
Method in brief: as §2

[6] = tested on: Aeschynomene sensitive SW./L. (sensitive jointvetch); assay: as above; type: in vivo; conditions: rice cropping systems, 17.5 g ae/ha, 21 DAA, may represent multiple trials
Method in brief: as §2

[7] = tested on: Cyperus iria L. (rice flatsedge); assay: as above; type: in vivo; conditions: rice cropping systems, 17.5 g ae/ha, 21 DAA, may represent multiple trials
Method in brief: as §2

[8] = tested on: Echinochloa colonum (L.) LINK (junglerice); assay: as above; type: in vivo; conditions: Echinochloa colona, post-emergence, 504 h, rice cropping systems, 17.5 g ae/ha, 21 DAA, may represent multiple trials, read-out: Visual Injury (%) ECHCO
Method in brief: as §2

[9] = tested on: Cyperus esculentus L. (yellow nutsedge); assay: as above; type: in vivo; conditions: rice cropping systems, 17.5 g ae/ha, 21 DAA, may represent multiple trials
Method in brief: as §2

[10] = tested on: Matricaria chamomilla (Mayweed, wild); assay: Postemergence herbicidal activity in cereal crops (Example 14); type: in vivo; conditions: wheat cropping systems, postemergence spray, 35 g ae/ha, 21 DAA
Experimental: (§3) Seeds of the desired test plant species were planted in Sun Gro Metro-Mix® 360 planting mixture, which typically has a pH of 6.0 to 6.8 and an organic matter content of about 30 percent, in plastic pots with a surface area of 84.6 cm^2. When required to ensure good germination and healthy plants, a fungicide treatment and/or other chemical or physical treatment was applied. The plants were grown for 7-36 d in a greenhouse with an approximate 14 h photoperiod which was maintained at about 18° C. during the day and 17° C. during the night. Nutrients and water were added on a regular basis and supplemental lighting was provided with overhead metal halide 1000-Watt lamps as necessary. The plants were employed for testing when they reached the second or third true leaf stage.
(§4) Treatments consisted of esters of compounds 33, 34, 39, 40 and 42 and B, F, G and H. Compound B is methyl 4-amino-3-chloro-6-(4-cyclopropylphenyl)-5-fluoropicolinate; compound F is methyl 6-amino-2-(4-chloro-2-fluoro-3-methoxyphenyl)-5-methoxypyrimidine-4-carboxylate; compound G is methyl 4-amino-3-chloro-6-(4-chloro-2-fluoro-3-methoxyphenyl)picolinate; and compound H is methyl 4-amino-3-chloro-6-(4-chloro-2-fluoro-3-(1-fluoroethyl)phenyl)-5-fluoropicolinate. A weighed amount, determined by the highest rate to be tested, of each test compound was placed in a 25 mL glass vial and was dissolved in 8 mL of a 97:3 v/v mixture of acetone and DMSO to obtain concentrated stock solutions. […] The concentrated stock solutions obtained were diluted with 16 mL of an aqueous mixture containing acetone, water, isopropyl alcohol, DMSO, Agri-dex crop oil concentrate, and Triton® X-77 surfactant in a 64.7:26.0:6.7:2.0:0.7:0.01 v/v ratio to obtain spray solutions containing the highest application rates. Additional application rates were obtained by serial dilution of 12 mL of the high rate solution into a solution containing 4 mL of a 97:3 v/v mixture of acetone and DMSO and 8 mL of an aqueous mixture containing acetone, water, isopropyl alcohol, DMSO, Agri-dex crop oil concentrate, and Triton® X-77 surfactant in a 48.5:39.0:10.0:1.5:1.0:0.02 v/v ratio to obtain ½×, ¼×, ⅛× and 1/16× rates of the high rate. Compound requirements are based upon a 12 mL application volume at a rate of 187 L/ha. Formulated compounds were applied to the plant material with an overhead Mandel track sprayer equipped with 8002E nozzles calibrated to deliver 187 L/ha over an application area of 0.503 m^2 at a spray height of 18 inches (43 cm) above average plant canopy height. Control plants were sprayed in the same manner with the blank.
(§5) The treated plants and control plants were placed in a greenhouse as described above and watered by sub-irrigation to prevent wash-off of the test compounds. After 20-22 d, the condition of the test plants as compared with that of the untreated plants was determined visually and scored on a scale of 0 to 100 percent where 0 corresponds to no injury and 100 corresponds to complete kill.

[11] = tested on: Setaria viridis (Foxtail, green); assay: as above; type: in vivo; conditions: wheat cropping systems, postemergence spray, 17.5 g ae/ha, 21 DAA
Experimental: as §3, §4, §5

[12] = tested on: Lolium multiflorum (Ryegrass, Italian); assay: as above; type: in vivo; conditions: wheat cropping systems, postemergence spray, 17.5 g ae/ha, 21 DAA
Experimental: as §3, §4, §5

[13] = tested on: Avena fatua (Oat, wild); assay: as above; type: in vivo; conditions: wheat cropping systems, postemergence spray, 35 g ae/ha, 21 DAA
Experimental: as §3, §4, §5

[14] = tested on: Brassica sinapis (Mustard, wild); assay: as above; type: in vivo; conditions: wheat cropping systems, postemergence spray, 8.75 g ae/ha, 21 DAA
Experimental: as §3, §4, §5

[15] = tested on: Veronica persica (Speedwell, birdseye); assay: as above; type: in vivo; conditions: wheat cropping systems, postemergence spray, 8.75 g ae/ha, 21 DAA
Experimental: as §3, §4, §5

[16] = tested on: Pennisetum glaucum (Foxtail, yellow); assay: as above; type: in vivo; conditions: wheat cropping systems, postemergence spray, 8.75 g ae/ha, 21 DAA
Experimental: as §3, §4, §5

melting point | Compound | pest or weed control at 35 g/ha [1] | pest or weed control at 35 g/ha [2] | pest or weed control at 17.5 g/ha [3] | Visual Injury (%) SEBEX [4] | Visual Injury (%) ECHCG [5] | Visual Injury (%) AESSE [6] | Visual Injury (%) CYPIR [7] | pest or weed control at 17.5 g/ha [8] | Visual Injury (%) CYPES [9] | Visual Injury (%) MATCH [10] | Visual Injury (%) SETVI [11] | Visual Injury (%) LOLMU [12] | Visual Injury (%) AVEFA [13] | Visual Injury (%) SINAR [14] | Visual Injury (%) VERPE [15] | Visual Injury (%) PESGL [16]
122 to 124 °C | CCOc1c(Cl)ccc(-c2nc(C(=O)OCc3ccccc3)c(Cl)c(N)c2F)c1F [Compound 41, benzyl 4-amino-3-chloro-6-(4-chloro-3-ethoxy-2-fluorophenyl)-5-fluoropicolinate] | 100% | 95% | 90% | 99% | 95% | 100% | 100% | 95% | 100% | – | – | – | – | – | – | –
170 to 172 °C | CCOc1c(Cl)ccc(-c2nc(C(=O)OC)c(Cl)c(N)c2F)c1F [Compound A, methyl 4-amino-3-chloro-6-(4-chloro-3-ethoxy-2-fluorophenyl)-5-fluoropicolinate] | 60% | 40% | 20% | 20% | 60% | 0% | 80% | 50% | 60% | – | – | – | – | – | – | –
– | COc1c(N)nc(-c2ccc(Cl)c(OC)c2F)nc1C(=O)OCCc1ccccc1 [Compound 34] | – | – | – | – | – | – | – | – | – | 20% | 80% | 70% | 40% | – | – | –
– | CC(F)c1c(Cl)ccc(-c2nc(C(=O)OCc3ccccc3)c(Cl)c(N)c2F)c1F (stereo not drawn) [Compound 40, benzyl 4-amino-3-chloro-6-(4-chloro-2-fluoro-3-(1-fluoroethyl)phenyl)-5-fluoropicolinate] | – | – | – | – | – | – | – | – | – | – | – | – | – | 98% | 95% | 65%
